Common to all, as to assay type: in vivo
For test [1], the system named is barnyardgrass (Echinochloa crus-galli). Put plainly: Test C flooded paddy test. The settings on record: for Barnyardgrass plant response rating: Flooded Paddy, scale 0 to 100, 0 no effect, 100 complete control; for Plant response rating, Barnyardgrass: flooded paddy test, scale 0 to 100 (0 no effect, 100 complete control). The procedure, abridged: (§1)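 Visual injury score, 0 (no effect) to 100 (complete control), relative to controls. Paddy plants treated at 2-leaf stage; greenhouse hold 12–14 d before rating.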

For test [2], the system named is smallflower flatsedge (Cyperus difformis). Put plainly: Test C flooded paddy test. The settings on record: for Flatsedge plant response rating: Flooded Paddy, scale 0 to 100, 0 no effect, 100 complete control; for Plant response rating, Flatsedge: flooded paddy test, scale 0 to 100 (0 no effect, 100 complete control). Put shortly: as §1
The next test relates to rice (Oryza saliva). Put plainly: Test C flooded paddy test. The settings on record: for Rice plant response rating: Flooded Paddy, scale 0 to 100, 0 no effect, 100 complete control; for Plant response rating, Rice: flooded paddy test, scale 0 to 100 (0 no effect, 100 complete control). Put shortly:
as §1

Test [3] relates to duck salad (Heteranthera limosa). Put plainly: Test C flooded paddy test. The settings on record: for Ducksalad plant response rating: Flooded Paddy, scale 0 to 100, 0 no effect, 100 complete control; for Plant response rating, Ducksalad: flooded paddy test, scale 0 to 100 (0 no effect, 100 complete control). The procedure, abridged:
as §1

Test [4] has as its system blackgrass (Alopecurus myosuroides). The experiment in a line: Test B postemergence. The settings on record: 13 to 15 days. Put shortly:
(§2)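 Visual injury scores, 0 = no effect to 100 = complete control, assigned against controls after 13 to 15 days in the greenhouse. Compounds formulated in non-phytotoxic solvent plus surfactant and applied to soil after planting (pre) or onto foliage of 1- to 4-leaf plants (post).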

For test [5], the system named is lambsquarters (Chenopodium album). The experiment in a line: Test B postemergence. The settings on record: 13 to 15 days. Put shortly: as §2
The mark [6] stands for this setting: Rate 125 g/ha, scale 0 (no effect) to 100 (complete control).
Setting [7] is: Rate 500 g/ha, scale 0 to 100, 0 is no effect, 100 is complete control.

The structures appear in SMILES notation.

Take `COc1cc(OC)cc(N2CCC(n3ccc(C(C)(C)C)n3)C2=O)c1` (stereo not drawn) [Compound 71]: the “Barnyardgrass plant response rating” value in test [1] (Rate 250 g/ha) is 0; in test [1] (Rate 500 g/ha) it was 80. Further, the “Plant response rating, Barnyardgrass” value in test [1] (Rate 62 g/ha) and in test [1] (Rate 125 g/ha) was 0 throughout. In addition, the “Flatsedge plant response rating” value in test [2] (Rate 250 g/ha) and in test [2] (Rate 500 g/ha) was 100 each time. The “Plant response rating, Flatsedge” value is given as 80 in test [2] (Rate 62 g/ha) and 100 in test [2] (Rate 125 g/ha). Further, the “Rice plant response rating” value in the test with rice (Oryza saliva) (Rate 250 g/ha) is 0; with rice (Oryza saliva) (Rate 500 g/ha) it was 60. Besides, the “Plant response rating, Rice” value with rice (Oryza saliva) (Rate 62 g/ha) and with rice (Oryza saliva) (Rate 125 g/ha) was 0 in each case. Further, the “Ducksalad plant response rating” value in test [3] (Rate 250 g/ha) and in test [3] (Rate 500 g/ha) was 30 throughout. For the same compound, the “Plant response rating, Ducksalad” value amounted to 0 in test [3] (Rate 62 g/ha) and 20 in test [3] (Rate 125 g/ha). The “Plant response rating, Blackgrass” value in test [4] (setting [6]) and in test [4] (setting [7]) was 0 throughout. Moreover, the “Plant response rating, Lambsquarters” value in test [5] (setting [6]) was 0; in test [5] (setting [7]), 50.

Consider `CCOC(=O)c1cccc(N2CCC(n3ccc(C(C)(C)C)n3)C2=O)c1` (stereo not drawn) [Compound 72], for which the “Barnyardgrass plant response rating” value in test [1] (Rate 250 g/ha) stood at 50; in test [1] (Rate 500 g/ha), 80. Also, the “Plant response rating, Barnyardgrass” value was 0 in test [1] (Rate 62 g/ha) and 50 in test [1] (Rate 125 g/ha). Further, the “Flatsedge plant response rating” value in test [2] (Rate 250 g/ha) worked out at 90; in test [2] (Rate 500 g/ha), 100. Further, the “Plant response rating, Flatsedge” value is recorded as 60 in test [2] (Rate 62 g/ha) and 90 in test [2] (Rate 125 g/ha). For the same compound, the “Rice plant response rating” value is recorded as 40 in the test on rice (Oryza saliva) (Rate 250 g/ha) and 50 with rice (Oryza saliva) (Rate 500 g/ha). In addition, the “Plant response rating, Rice” value worked out at 0 in the test with rice (Oryza saliva) (Rate 62 g/ha) and 20 in the test with rice (Oryza saliva) (Rate 125 g/ha). In addition, the “Ducksalad plant response rating” value in test [3] (Rate 250 g/ha) and in test [3] (Rate 500 g/ha) was 90 in each case. In addition, the “Plant response rating, Ducksalad” value in test [3] (Rate 62 g/ha) is recorded as 40; in test [3] (Rate 125 g/ha), 80. Moreover, the “Plant response rating, Blackgrass” value in test [4] (setting [6]) and in test [4] (setting [7]) was 0 throughout. Further, the “Plant response rating, Lambsquarters” value in test [5] (setting [6]) and in test [5] (setting [7]) was 0 in each case.

As to `CC(C)(C)c1ccn(C2CCN(c3ccc(F)c(Br)c3)C2=O)n1` (stereo not drawn) [Compound 75], the “Barnyardgrass plant response rating” value turned out to be 80 in test [1] (Rate 250 g/ha) and 100 in test [1] (Rate 500 g/ha). For the same compound, the “Plant response rating, Barnyardgrass” value in test [1] (Rate 62 g/ha) stood at 70. Also, the “Flatsedge plant response rating” value in test [2] (Rate 250 g/ha) and in test [2] (Rate 500 g/ha) was 100 throughout. Moreover, the “Plant response rating, Flatsedge” value in test [2] (Rate 62 g/ha) and in test [2] (Rate 125 g/ha) was 90 throughout. The entries for the “Rice plant response rating” value with rice (Oryza saliva) (Rate 250 g/ha) and in the test on rice (Oryza saliva) (Rate 500 g/ha) were 30 and 40, respectively. The “Plant response rating, Rice” value in the test on rice (Oryza saliva) (Rate 62 g/ha) and in the test on rice (Oryza saliva) (Rate 125 g/ha) was 0 throughout. For the same compound, in test [3] (Rate 500 g/ha), the “Ducksalad plant response rating” value is 90. Moreover, the results for the “Plant response rating, Ducksalad” value in test [3] (Rate 62 g/ha) and in test [3] (Rate 125 g/ha) were 70 and 80, respectively. The “Plant response rating, Blackgrass” value in test [4] (setting [6]) and in test [4] (setting [7]) was 0 each time. The “Plant response rating, Lambsquarters” value in test [5] (setting [6]) stood at 70; in test [5] (setting [7]) it was 80.

For the compound `CC(C)(C)c1ccn(C2CCN(c3cccc(OC(F)F)c3)C2=O)n1` (stereo not drawn) [Compound 76], the “Barnyardgrass plant response rating” value in test [1] (Rate 250 g/ha) and in test [1] (Rate 500 g/ha) was 90 in each case. Moreover, the “Plant response rating, Barnyardgrass” value in test [1] (Rate 62 g/ha) came out at 40; in test [1] (Rate 125 g/ha), 90. In addition, the “Flatsedge plant response rating” value in test [2] (Rate 250 g/ha) and in test [2] (Rate 500 g/ha) was 90 in each case. Moreover, the “Plant response rating, Flatsedge” value in test [2] (Rate 62 g/ha) and in test [2] (Rate 125 g/ha) was 90 each time. The “Rice plant response rating” value in the test on rice (Oryza saliva) (Rate 250 g/ha) and in the test with rice (Oryza saliva) (Rate 500 g/ha) was 80 throughout. In addition, the entries for the “Plant response rating, Rice” value with rice (Oryza saliva) (Rate 62 g/ha) and in the test on rice (Oryza saliva) (Rate 125 g/ha) were 20 and 40, respectively. The “Ducksalad plant response rating” value in test [3] (Rate 250 g/ha) turned out to be 80; in test [3] (Rate 500 g/ha), 100. Besides, the figures for the “Plant response rating, Ducksalad” value in test [3] (Rate 62 g/ha) and in test [3] (Rate 125 g/ha) were 30 and 80, respectively. Moreover, the “Plant response rating, Blackgrass” value in test [4] (setting [6]) and in test [4] (setting [7]) was 0 each time. Besides, the “Plant response rating, Lambsquarters” value turned out to be 0 in test [5] (setting [6]) and 40 in test [5] (setting [7]).

`Cc1ccc(N2CCC(n3ccc(C(C)(C)C)n3)C2=O)cc1OC(F)F` (stereo not drawn) [Compound 79]: the “Barnyardgrass plant response rating” value in test [1] (Rate 250 g/ha) and in test [1] (Rate 500 g/ha) was 90 throughout. The “Plant response rating, Barnyardgrass” value in test [1] (Rate 62 g/ha) is given as 30; in test [1] (Rate 125 g/ha), 40. For the same compound, the “Flatsedge plant response rating” value in test [2] (Rate 250 g/ha) and in test [2] (Rate 500 g/ha) was 90 throughout. The “Plant response rating, Flatsedge” value in test [2] (Rate 62 g/ha) and in test [2] (Rate 125 g/ha) was 90 throughout. The “Rice plant response rating” value with rice (Oryza saliva) (Rate 250 g/ha) is given as 20; with rice (Oryza saliva) (Rate 500 g/ha) it was 50. The figures for the “Plant response rating, Rice” value with rice (Oryza saliva) (Rate 62 g/ha) and in the test on rice (Oryza saliva) (Rate 125 g/ha) were 0 and 20, respectively. Moreover, the “Ducksalad plant response rating” value in test [3] (Rate 250 g/ha) and in test [3] (Rate 500 g/ha) was 90 throughout. Further, the “Plant response rating, Ducksalad” value in test [3] (Rate 62 g/ha) was 0; in test [3] (Rate 125 g/ha), 30. The “Plant response rating, Blackgrass” value in test [4] (setting [6]) and in test [4] (setting [7]) was 0 in each case. For the same compound, the “Plant response rating, Lambsquarters” value amounted to 0 in test [5] (setting [6]) and 10 in test [5] (setting [7]).

For the compound `CC(C)Oc1cccc(N2CCC(n3ccc(C(C)C)n3)C2=O)c1` (stereo not drawn) [Compound 82], the “Barnyardgrass plant response rating” value in test [1] (Rate 250 g/ha) and in test [1] (Rate 500 g/ha) was 100 each time. Besides, the “Plant response rating, Barnyardgrass” value in test [1] (Rate 62 g/ha) is given as 30; in test [1] (Rate 125 g/ha), 60. Besides, the “Flatsedge plant response rating” value was 90 in test [2] (Rate 250 g/ha) and 100 in test [2] (Rate 500 g/ha). The “Plant response rating, Flatsedge” value in test [2] (Rate 62 g/ha) and in test [2] (Rate 125 g/ha) was 90 in each case. The “Rice plant response rating” value is 60 with rice (Oryza saliva) (Rate 250 g/ha) and 80 in the test on rice (Oryza saliva) (Rate 500 g/ha). The “Plant response rating, Rice” value stood at 0 in the test on rice (Oryza saliva) (Rate 62 g/ha) and 30 in the test on rice (Oryza saliva) (Rate 125 g/ha). Further, the “Ducksalad plant response rating” value was 90 in test [3] (Rate 250 g/ha) and 100 in test [3] (Rate 500 g/ha). Moreover, the “Plant response rating, Ducksalad” value in test [3] (Rate 62 g/ha) came to 20; in test [3] (Rate 125 g/ha), 30. Further, the “Plant response rating, Blackgrass” value in test [4] (setting [6]) and in test [4] (setting [7]) was 0 each time. For the same compound, the “Plant response rating, Lambsquarters” value in test [5] (setting [6]) worked out at 20; in test [5] (setting [7]), 70.

For the compound `CCC(C)c1ccn(C2CCN(c3cccc(OC(C)C)c3)C2=O)n1` (stereo not drawn) [Compound 83], the “Barnyardgrass plant response rating” value in test [1] (Rate 250 g/ha) came out at 70; in test [1] (Rate 500 g/ha), 100. Moreover, the “Plant response rating, Barnyardgrass” value in test [1] (Rate 62 g/ha) came to 60; in test [1] (Rate 125 g/ha) it was 70. Also, the “Flatsedge plant response rating” value in test [2] (Rate 250 g/ha) and in test [2] (Rate 500 g/ha) was 100 each time. Further, the “Plant response rating, Flatsedge” value amounted to 90 in test [2] (Rate 62 g/ha) and 100 in test [2] (Rate 125 g/ha). The “Rice plant response rating” value in the test on rice (Oryza saliva) (Rate 250 g/ha) stood at 70; with rice (Oryza saliva) (Rate 500 g/ha), 80. For the same compound, the “Plant response rating, Rice” value in the test with rice (Oryza saliva) (Rate 62 g/ha) and with rice (Oryza saliva) (Rate 125 g/ha) was 20 each time. Further, the “Ducksalad plant response rating” value in test [3] (Rate 250 g/ha) and in test [3] (Rate 500 g/ha) was 100 in each case. Besides, the “Plant response rating, Ducksalad” value in test [3] (Rate 62 g/ha) and in test [3] (Rate 125 g/ha) was 40 in each case. Moreover, the “Plant response rating, Blackgrass” value in test [4] (setting [6]) and in test [4] (setting [7]) was 0 throughout. The results for the “Plant response rating, Lambsquarters” value in test [5] (setting [6]) and in test [5] (setting [7]) were 10 and 60, respectively.

These data come from patent US7138361B2, “Herbicidal heterocycles” (E. I. du Pont de Nemours and Company, priority 2000, dated 2006).
